Measured values reported in ChEMBL document CHEMBL6177932 (J Med Chem, 2024).
Each block holds one compound with its values, some of them ahead of it. The source made the active and inactive calls. The calls are words filed in the database; no cut-off is given here.

Tests used:
4T1 [1] = assay: Cytotoxicity against mouse 4T1 cells assessed as reduction in cell viability at 100 nM measured after 24 hrs by RealTime-glo cell viability assay; assay type: functional, cell-based
MDA-MB-231 [2] = assay: Cytotoxicity against human MDA-MB-231 cells assessed as reduction in cell viability at 100 nM measured after 24 hrs by RealTime-glo cell viability assay; assay type: functional, cell-based
4T1 [3] = assay: Cytotoxicity against mouse 4T1 cells assessed as reduction in cell viability at 100 nM measured after 24 hrs in presence of 1,25D by RealTime-glo cell viability assay; assay type: functional, cell-based
MDA-MB-231 [4] = assay: Cytotoxicity against human MDA-MB-231 cells assessed as reduction in cell viability at 100 nM measured after 24 hrs in presence of 1,25D by RealTime-glo cell viability assay; assay type: functional, cell-based
[5] = target: T1, Protein deacetylase HDAC6 (Mus musculus) (UniProt Q9Z2V5); assay: Inhibition of HDAC6 in mouse 4T1 cells assessed as induction of tubulin acetylation at 100 nM measured after 6 hrs by Western blot analysis; assay type: cell-based
T1 sequence (whole entry): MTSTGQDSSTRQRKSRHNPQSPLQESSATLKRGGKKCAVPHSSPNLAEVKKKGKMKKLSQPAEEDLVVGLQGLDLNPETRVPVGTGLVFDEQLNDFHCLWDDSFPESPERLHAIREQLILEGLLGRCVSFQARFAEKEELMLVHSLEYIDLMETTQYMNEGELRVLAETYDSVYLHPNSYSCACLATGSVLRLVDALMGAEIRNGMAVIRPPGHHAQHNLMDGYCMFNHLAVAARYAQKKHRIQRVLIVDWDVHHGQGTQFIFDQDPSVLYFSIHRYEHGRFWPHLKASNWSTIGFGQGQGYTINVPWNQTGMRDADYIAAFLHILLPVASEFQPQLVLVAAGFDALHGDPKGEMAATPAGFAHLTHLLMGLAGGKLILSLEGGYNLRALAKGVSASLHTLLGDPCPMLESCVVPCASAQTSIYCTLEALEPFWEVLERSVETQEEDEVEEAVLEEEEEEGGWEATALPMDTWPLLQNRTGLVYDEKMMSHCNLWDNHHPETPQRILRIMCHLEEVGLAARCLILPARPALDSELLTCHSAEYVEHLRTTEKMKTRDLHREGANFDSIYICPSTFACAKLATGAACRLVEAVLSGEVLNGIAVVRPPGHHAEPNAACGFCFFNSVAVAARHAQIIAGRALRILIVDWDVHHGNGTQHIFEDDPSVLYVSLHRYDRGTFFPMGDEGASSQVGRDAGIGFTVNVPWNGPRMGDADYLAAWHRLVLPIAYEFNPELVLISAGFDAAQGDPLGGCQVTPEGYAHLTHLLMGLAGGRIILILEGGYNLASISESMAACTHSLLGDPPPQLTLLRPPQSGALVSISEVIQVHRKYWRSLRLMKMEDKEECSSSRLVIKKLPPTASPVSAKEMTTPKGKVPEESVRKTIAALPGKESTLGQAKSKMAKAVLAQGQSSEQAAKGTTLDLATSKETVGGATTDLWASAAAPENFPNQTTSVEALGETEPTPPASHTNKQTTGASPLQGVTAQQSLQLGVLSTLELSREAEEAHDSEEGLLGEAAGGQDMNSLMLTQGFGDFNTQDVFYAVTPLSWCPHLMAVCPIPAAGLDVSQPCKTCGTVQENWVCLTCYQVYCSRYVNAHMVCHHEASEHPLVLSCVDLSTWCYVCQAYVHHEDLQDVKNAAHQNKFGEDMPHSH

[6] = target: T2, Vitamin D3 receptor (Mus musculus) (UniProt P48281); assay: Agonist activity at VDR in mouse B16-F10 cells assessed as induction of Cyp24a1 gene at 100 nM measured after 24 hrs in presence of 1,25D by RT-qPCR analysis; assay type: cell-based; details: filed as agonist
T2 sequence (whole entry): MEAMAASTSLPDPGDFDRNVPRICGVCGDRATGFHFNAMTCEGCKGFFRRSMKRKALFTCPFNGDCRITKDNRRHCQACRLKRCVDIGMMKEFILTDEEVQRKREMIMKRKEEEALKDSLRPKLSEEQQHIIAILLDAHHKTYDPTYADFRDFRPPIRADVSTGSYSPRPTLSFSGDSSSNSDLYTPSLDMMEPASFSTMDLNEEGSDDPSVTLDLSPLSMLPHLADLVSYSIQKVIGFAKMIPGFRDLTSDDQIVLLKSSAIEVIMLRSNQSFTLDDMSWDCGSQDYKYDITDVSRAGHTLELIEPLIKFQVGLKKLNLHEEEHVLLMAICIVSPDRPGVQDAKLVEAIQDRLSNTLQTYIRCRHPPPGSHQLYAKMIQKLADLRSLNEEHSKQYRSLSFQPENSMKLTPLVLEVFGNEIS

[7] = target: T1, Protein deacetylase HDAC6 (Mus musculus); assay: Inhibition of HDAC6 in mouse B16-F10 cells assessed as induction of tubulin acetylation at 100 nM measured after 6 hrs by Western blot analysis; assay type: cell-based
[8] = Toxicity in mouse B16-F10 cells implanted C57BL/6 mouse at 80 mg/kg, ip administered daily for 28 days; assay type: organism-based; details: in vivo, time 28 day
[9] = Toxicity in mouse B16-F10 cells implanted C57BL/6 mouse at 80 mg/kg, ip administered daily for 28 days in presence of 1,25D; assay type: organism-based; details: in vivo, time 28 day
[10] = Toxicity in mouse B16-F10 cells implanted C57BL/6 mouse assessed as effect on body weight at 80 mg/kg, ip administered daily for 28 days; assay type: organism-based; details: in vivo, time 28 day
[11] = Toxicity in mouse B16-F10 cells implanted C57BL/6 mouse assessed as effect on body weight at 80 mg/kg, ip administered daily for 28 days in presence of 1,25D; assay type: organism-based; details: in vivo, time 28 day
B16-F10 [12] = assay: Antitumor activity against mouse B16-F10 cells implanted in C57BL/6 mouse assessed as reduction in tumor burden at 80 mg/kg, ip administered every second day for 18 days; assay type: functional, organism-based; details: time 18.0 day
B16-F10 [13] = assay: Antitumor activity against mouse B16-F10 cells implanted in C57BL/6 mouse assessed as reduction in tumor burden at 80 mg/kg, ip administered every second day for 18 days in presence of 1,25D; assay type: functional, organism-based; details: time 18.0 day
[14] = Toxicity in 4T1 cells implanted BALB/c mouse assessed as stress at 80 mg/kg, ip administered daily for 18 days; assay type: organism-based; details: in vivo, 432 h, time 18 day
[15] = Toxicity in 4T1 cells implanted BALB/c mouse assessed as stress at 80 mg/kg, ip administered daily for 18 days in presence of 1,25D; assay type: organism-based; details: in vivo, 432 h, time 18 day
[16] = Toxicity in 4T1 cells implanted BALB/c mouse assessed as body weight loss at 80 mg/kg, ip administered daily for 18 days; assay type: organism-based; details: in vivo, 432 h, time 18 day
[17] = Toxicity in 4T1 cells implanted BALB/c mouse assessed as body weight loss at 80 mg/kg, ip administered daily for 18 days in presence of 1,25D; assay type: organism-based; details: in vivo, 432 h, time 18 day
4T1 [18] = assay: Antitumor activity against mouse 4T1 cells implanted in BALB/c mouse assessed as reduction in tumor burden at 80 mg/kg, ip administered daily for 18 days in presence of 1,25D relative to control; assay type: functional; parameters: scale not given: the % may be the effect or the level left; details: time 18 day
Mus musculus [19] = assay: Immunomodulatory activity in mouse 4T1 cells implanted BALB/c mouse assessed as reduction in total macrophage infiltration into tumors at 80 mg/kg, ip administered daily for 18 days by F4/80 staining based immunofluorescence microscopy; assay type: functional, organism-based; details: time 18.0 day
4T1 [20] = assay: Cytotoxicity against mouse 4T1 cells assessed as reduction in cell viability at 100 nM measured after 24 hrs in presence of SAHA by RealTime-glo cell viability assay; assay type: functional, cell-based
MDA-MB-231 [21] = assay: Cytotoxicity against human MDA-MB-231 cells assessed as reduction in cell viability at 100 nM measured after 24 hrs in presence of SAHA by RealTime-glo cell viability assay; assay type: functional, cell-based
[22] = Toxicity in mouse B16-F10 cells implanted C57BL/6 mouse at 0.25 ug/kg, ip administered daily for 28 days; assay type: organism-based; details: in vivo, 0.00025 mg/kg, dose 0.25 µg/kg, time 28 day
[23] = Toxicity in mouse B16-F10 cells implanted C57BL/6 mouse at 0.25 ug/kg, ip administered daily for 28 days in presence of SAHA; assay type: organism-based; details: in vivo, 0.00025 mg/kg, dose 0.25 µg/kg, time 28 day
[24] = Toxicity in mouse B16-F10 cells implanted C57BL/6 mouse assessed as effect on body weight at 0.25 ug/kg, ip administered daily for 28 days; assay type: organism-based; details: in vivo, 0.00025 mg/kg, dose 0.25 µg/kg, time 28 day
[25] = Toxicity in mouse B16-F10 cells implanted C57BL/6 mouse assessed as effect on body weight at 0.25 ug/kg, ip administered daily for 28 days in presence of SAHA; assay type: organism-based; details: in vivo, 0.00025 mg/kg, dose 0.25 µg/kg, time 28 day
B16-F10 [26] = assay: Antitumor activity against mouse B16-F10 cells implanted in C57BL/6 mouse assessed as reduction in tumor burden at 0.25 ug/kg, ip administered every second day for 18 days; assay type: functional, organism-based; details: dose 0.25 µg/kg, time 18.0 day
B16-F10 [27] = assay: Antitumor activity against mouse B16-F10 cells implanted in C57BL/6 mouse assessed as reduction in tumor burden at 0.25 ug/kg, ip administered every second day for 18 days in presence of SAHA; assay type: functional, organism-based; details: dose 0.25 µg/kg, time 18.0 day
[28] = Toxicity in 4T1 cells implanted BALB/c mouse assessed as stress at 0.25 ug/kg, ip administered daily for 18 days; assay type: organism-based; details: in vivo, 0.00025 mg/kg, 432 h, dose 0.25 µg/kg, time 18 day
[29] = Toxicity in 4T1 cells implanted BALB/c mouse assessed as stress at 0.25 ug/kg, ip administered daily for 18 days in presence of SAHA; assay type: organism-based; details: in vivo, 0.00025 mg/kg, 432 h, dose 0.25 µg/kg, time 18 day
[30] = Toxicity in 4T1 cells implanted BALB/c mouse assessed as body weight loss at 0.25 ug/kg, ip administered daily for 18 days; assay type: organism-based; details: in vivo, 0.00025 mg/kg, 432 h, dose 0.25 µg/kg, time 18 day
[31] = Toxicity in 4T1 cells implanted BALB/c mouse assessed as body weight loss at 0.25 ug/kg, ip administered daily for 18 days in presence of SAHA; assay type: organism-based; details: in vivo, 0.00025 mg/kg, 432 h, dose 0.25 µg/kg, time 18 day
4T1 [32] = assay: Antitumor activity against mouse 4T1 cells implanted in BALB/c mouse assessed as reduction in tumor burden at 0.25 ug/kg, ip administered daily for 18 days in presence of SAHA relative to control; assay type: functional; parameters: scale not given: the % may be the effect or the level left; details: dose 0.25 µg/kg, time 18 day
Mus musculus [33] = assay: Immunomodulatory activity in mouse 4T1 cells implanted BALB/c mouse assessed as reduction in Ccl2 gene expression at 0.25 ug/kg, ip administered daily for 18 days by RT-qPCR analysis; assay type: functional, organism-based; details: dose 0.25 µg/kg, time 18.0 day
Mus musculus [34] = assay: Immunomodulatory activity in mouse 4T1 cells implanted BALB/c mouse assessed as reduction in Ccl5 gene expression at 0.25 ug/kg, ip administered daily for 18 days by RT-qPCR analysis; assay type: functional, organism-based; details: dose 0.25 µg/kg, time 18.0 day
Mus musculus [35] = assay: Immunomodulatory activity in mouse 4T1 cells implanted BALB/c mouse assessed as reduction in Ccl20 gene expression at 0.25 ug/kg, ip administered daily for 18 days by RT-qPCR analysis; assay type: functional, organism-based; details: dose 0.25 µg/kg, time 18.0 day
Mus musculus [36] = assay: Immunomodulatory activity in mouse 4T1 cells implanted BALB/c mouse assessed as reduction in Cxcl10 gene expression at 0.25 ug/kg, ip administered daily for 18 days by RT-qPCR analysis; assay type: functional, organism-based; details: dose 0.25 µg/kg, time 18.0 day
Mus musculus [37] = assay: Immunomodulatory activity in mouse 4T1 cells implanted BALB/c mouse assessed as induction of Il1a gene expression at 0.25 ug/kg, ip administered daily for 18 days by RT-qPCR analysis; assay type: functional, organism-based; details: dose 0.25 µg/kg, time 18.0 day
Mus musculus [38] = assay: Immunomodulatory activity in mouse 4T1 cells implanted BALB/c mouse assessed as reduction in total macrophage infiltration into tumors at 0.25 ug/kg, ip administered daily for 18 days by F4/80 staining based immunofluorescence microscopy; assay type: functional, organism-based; details: dose 0.25 µg/kg, time 18.0 day

inhibition [5]: Active
Activity [6]: Active
inhibition [7]: Active
SMILES: O=C(CCCCCCC(=O)Nc1ccccc1)NO [VORINOSTAT]
Activity (4T1 [1]): Active
Activity (MDA-MB-231 [2]): Active
Activity (4T1 [3]): Active
Activity (MDA-MB-231 [4]): Active
Activity [8]: Non-toxic
Activity [9]: Non-toxic
Activity [10]: Non-toxic
Activity [11]: Non-toxic
Activity (B16-F10 [12]): Active
Activity (B16-F10 [13]): Active
Activity [14]: Non-toxic
Activity [15]: Non-toxic
Activity [16]: Non-toxic
Activity [17]: Non-toxic
Activity (4T1 [18]): ~20%
Activity (Mus musculus [19]): Active; No Significant Effect Observed

SMILES: C=C1/C(=C\C=C2/CCC[C@]3(C)[C@@H]([C@H](C)CCCC(C)(C)O)CC[C@@H]23)C[C@@H](O)C[C@@H]1O [CALCITRIOL]
Activity (4T1 [1]): Active
Activity (MDA-MB-231 [2]): Active
Activity (4T1 [20]): Active
Activity (MDA-MB-231 [21]): Active
Activity [22]: Non-toxic
Activity [23]: Non-toxic
Activity [24]: Non-toxic
Activity [25]: Non-toxic
Activity (B16-F10 [26]): Active
Activity (B16-F10 [27]): Active
Activity [28]: Non-toxic
Activity [29]: Non-toxic
Activity [30]: Non-toxic
Activity [31]: Non-toxic
Activity (4T1 [32]): ~20%
Activity (Mus musculus [33]): Active
Activity (Mus musculus [34]): Active
Activity (Mus musculus [35]): Active
Activity (Mus musculus [36]): Active
Activity (Mus musculus [37]): Active
Activity (Mus musculus [38]): Active; Significantly Reduced Macrophage Infiltration Into Tumor
